Results on one compound are retold here after ChEMBL document CHEMBL1159221, “Crystal Structure of Sandaracopimaric Acid, a Lipoxygenase Inhibitor from Juniperus phoenicea” (J Nat Prod, 1995).

pIC50: −log10 of the molar value. The source made the active and inactive calls. The rule behind the calls is not given here.

Test [1] can be described thus: Inhibition of soybean 15-lipoxygenase assessed as residual activity by spectrophotometry. The arrangement: species or system Glycine max.
The subject of test [2] is MCF7. The test can be described thus: Growth inhibition of human MCF7 cells. The test is classed as functional, cell-based.
For test [3], the system named is HGT. The test can be described thus: Growth inhibition of HGT cells. Format: functional, cell-based. As to conditions: Homo sapiens.

The term pIC50 denotes the IC50 on a negative log10 scale, so that one unit is a factor of ten. In the case of `C=C[C@]1(C)C=C2CC[C@@H]3[C@](C)(CCC[C@@]3(C)C(=O)O)[C@H]2CC1` [SANDARACOPIMARIC ACID], the negative-log IC50 (pIC50) in test [1] was 3.19. The result in test [2] and in test [3] was inactive.
